According to patent US9854801B2, “Weed control from applications of an ethylene inhibitor and a pyridine carboxylic acid herbicide” (Dow AgroSciences LLC, priority 2015, dated 2018):
“And” between values parts separate entries of the source, which are not always exact repeats. Identical values can stand only once.

How the values were obtained:
Assay type in all cases: in vivo
Settings in all cases: 20-21 days after application
[1] = test system: yellow nutsedge, Cyperus esculentus L. (CYPES); test: Foliar-applied greenhouse weed control, yellow nutsedge (CYPES)
Method: (§1) The soil matrix was contained in plastic pots with a volume of 1 quart and a surface area of 83.6 cm^2. When required, to ensure good germination and healthy plants, a fungicide treatment and/or other chemical or physical treatment was applied. The plants were grown for 10-22 days in a greenhouse with an approximate 14 h photoperiod which was maintained at about 29° C. during the day and 26° C. during the night. Nutrients (Peters Excel® 15-5-15 5-Ca 2-Mg and iron chelate) were applied in the irrigation solution as needed and water was added on a regular basis. Supplemental lighting was provided with overhead metal halide 1000-Watt lamps as necessary. The plants were employed for testing when they reached the second or third true leaf stage. […] The compounds were applied on an active ingredient basis. […] All stock solutions and applications solutions were visually inspected for compound compatibility prior to application. […] Control plants were sprayed in the same manner with the solvent blank. The treated plants and control plants were placed in a greenhouse as described above and watered by sub-irrigation to prevent wash-off of the test compounds. […] Colby's equation was used to determine the herbicidal effects expected from the mixtures. The combinations tested, ratios employed, plant species tested, and results are included in Table 1 below.

[2] = test system: large crabgrass, Digitaria sanguinalis (L.) Scop. (DIGSA); test: Foliar-applied greenhouse weed control, large crabgrass (DIGSA)
Method: as §1

[3] = test system: barnyard grass, Echinochloa crus-galli (L.) P. Beauv. (ECHCG); test: Foliar-applied greenhouse weed control, barnyard grass (ECHCG)
Method: as §1

[4] = test system: junglerice, Echinochloa colonum (L.) LINK (ECHCO); test: Foliar-applied greenhouse weed control, junglerice (ECHCO)
Method: as §1

[5] = test system: ivyleaf morning glory, Ipomoea hederacea (L.) Jacq. (IPOHE); test: Foliar-applied greenhouse weed control, ivyleaf morning glory (IPOHE)
Method: as §1

## CC1=CC1 [1-methylcyclopropene, reference compound]
[1]; 5 g ai/ha alone
  1-methylcyclopropene % Visual Weed Control: 0%
[2]; 2 g ai/ha alone
  1-methylcyclopropene % Visual Weed Control: 0%
[2]; 4 g ai/ha alone
  1-methylcyclopropene % Visual Weed Control: 0%
[2]; 5 g ai/ha alone
  1-methylcyclopropene % Visual Weed Control: 0%
[2]; 10 g ai/ha alone
  1-methylcyclopropene % Visual Weed Control: 0%
[2]; 20 g ai/ha alone
  1-methylcyclopropene % Visual Weed Control: 0%
[3]; 2 g ai/ha alone
  1-methylcyclopropene % Visual Weed Control: 0%
[3]; 4 g ai/ha alone
  1-methylcyclopropene % Visual Weed Control: 0%
[3]; 5 g ai/ha alone
  1-methylcyclopropene % Visual Weed Control: 0%
[3]; 10 g ai/ha alone
  1-methylcyclopropene % Visual Weed Control: 0%
[3]; 20 g ai/ha alone
  1-methylcyclopropene % Visual Weed Control: 0%
[4]; 2 g ai/ha alone
  1-methylcyclopropene % Visual Weed Control: 0%
[4]; 4 g ai/ha alone
  1-methylcyclopropene % Visual Weed Control: 0%
[5]; 2 g ai/ha alone
  1-methylcyclopropene % Visual Weed Control: 0%
[5]; 4 g ai/ha alone
  1-methylcyclopropene % Visual Weed Control: 0%
[5]; 5 g ai/ha alone
  1-methylcyclopropene % Visual Weed Control: 0%
[5]; 10 g ai/ha alone
  1-methylcyclopropene % Visual Weed Control: 0%

## COc1c(Cl)ccc(-c2nc(C(=O)OCc3ccccc3)c(Cl)c(N)c2F)c1F [Formula (II) benzyl ester, benzyl ester of 4-amino-3-chloro-5-fluoro-6-(4-chloro-2-fluoro-3-methoxy-phenyl) pyridine-2-carboxylic acid]
[1]; 8 g ai/ha alone
  Formula (II) benzyl ester % Visual Weed Control: 70%
[1]; 16 g ai/ha alone
  Formula (II) benzyl ester % Visual Weed Control: 88%
[1]; 32 g ai/ha alone
  Formula (II) benzyl ester % Visual Weed Control: 73%
[2]; 8 g ai/ha alone
  Formula (II) benzyl ester % Visual Weed Control: 13% and 20%
[2]; 16 g ai/ha alone
  Formula (II) benzyl ester % Visual Weed Control: 23% and 28%
[2]; 32 g ai/ha alone
  Formula (II) benzyl ester % Visual Weed Control: 30% and 33%
[3]; 8 g ai/ha alone
  Formula (II) benzyl ester % Visual Weed Control: 40% and 63%
[3]; 16 g ai/ha alone
  Formula (II) benzyl ester % Visual Weed Control: 63% and 78%
[3]; 32 g ai/ha alone
  Formula (II) benzyl ester % Visual Weed Control: 83% and 90%
[4]; 8 g ai/ha alone
  Formula (II) benzyl ester % Visual Weed Control: 50%
[4]; 16 g ai/ha alone
  Formula (II) benzyl ester % Visual Weed Control: 50%
[4]; 32 g ai/ha alone
  Formula (II) benzyl ester % Visual Weed Control: 80%
[5]; 16 g ai/ha alone
  Formula (II) benzyl ester % Visual Weed Control: 18% and 25%
[5]; 32 g ai/ha alone
  Formula (II) benzyl ester % Visual Weed Control: 35% and 48%
